# Measured values as given in paper PMC5587309, “Involvement of arginine 878 together with Ca^2+ in mouse aminopeptidase A substrate specificity for N-terminal acidic amino-acid residues” (PLoS ONE, 2017).
# Changes are numbered by the printed parent chain.
# Legend:
# Format in all cases: biochemical
# wild-type mAPA [1] = target: T1, wild-type mAPA (Mus musculus, UniProt P16406); experiment: Ca2+ activation profile of GluNA hydrolysis by wild-type His-mAPA; conditions: 0.5 mM GluNA
# T1 construct: made in house; host or cells: stably transfected CHO-K1 cells
# T1 sequence (P16406 1-945): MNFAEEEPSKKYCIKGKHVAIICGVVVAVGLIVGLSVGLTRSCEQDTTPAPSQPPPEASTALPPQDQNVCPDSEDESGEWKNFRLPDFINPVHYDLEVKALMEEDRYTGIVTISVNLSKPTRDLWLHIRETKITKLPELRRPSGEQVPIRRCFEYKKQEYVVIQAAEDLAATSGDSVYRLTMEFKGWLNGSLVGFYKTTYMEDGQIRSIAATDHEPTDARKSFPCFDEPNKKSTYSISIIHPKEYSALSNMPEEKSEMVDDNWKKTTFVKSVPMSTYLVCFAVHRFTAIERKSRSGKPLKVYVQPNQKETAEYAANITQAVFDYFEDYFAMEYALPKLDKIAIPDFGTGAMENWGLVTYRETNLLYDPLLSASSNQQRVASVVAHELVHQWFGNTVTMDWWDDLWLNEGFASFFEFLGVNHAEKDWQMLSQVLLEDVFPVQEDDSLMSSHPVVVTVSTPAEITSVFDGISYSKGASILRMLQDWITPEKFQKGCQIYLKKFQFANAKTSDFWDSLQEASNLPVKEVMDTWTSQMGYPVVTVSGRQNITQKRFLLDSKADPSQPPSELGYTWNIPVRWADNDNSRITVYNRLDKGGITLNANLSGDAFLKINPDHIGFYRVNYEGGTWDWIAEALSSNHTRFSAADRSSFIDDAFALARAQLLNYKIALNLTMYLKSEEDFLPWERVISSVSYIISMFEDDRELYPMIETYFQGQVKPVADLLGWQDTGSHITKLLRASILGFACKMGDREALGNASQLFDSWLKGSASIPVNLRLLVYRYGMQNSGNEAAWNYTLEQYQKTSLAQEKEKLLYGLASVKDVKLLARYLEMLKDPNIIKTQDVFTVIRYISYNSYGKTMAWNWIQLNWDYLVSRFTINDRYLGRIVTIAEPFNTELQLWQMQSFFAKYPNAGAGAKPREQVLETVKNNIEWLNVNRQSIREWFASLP
# Method: Enzyme assays were carried out for wild-type and mutated […] 50 mM Tris-HCl buffer, pH 7.4, with or without 4 mM CaCl2, by monitoring the rate of hydrolysis of GluNA, as previously described. The sensitivity to Ca^2+ of purified wild-type and mutated His-mAPA was determinated by incubating 0.5 mM GluNA with 0 to 4 mM CaCl2 in a final volume of 100 μl of 50 mM Tris-HCl buffer, pH 7.4. All the assays were performed in black 96-well plates (solid black 96-well flat-bottomed non-treated plates with no lid; Corning Costar). All of the enzymatic studies were performed such that substrate hydrolysis rates were maintained below 10% (initial rate conditions). […] Fluorescence signals were monitored by counting photons with a spectrophotometer (Fusion universal microplate analyser; Packard) equipped with a temperature control device and a plate shaker. […] Fig 3 Effects of the divalent cation Ca^2+ on recombinant wild-type and mutated mouse APAs enzymatic activities. Purified mAPAs (2 μg) were incubated at 37°C for 30 min with 0.5 mM GluNA with various concentrations of CaCl2 in a final volume of 100 μl of 50 mM Tris-HCl buffer (pH7.4). (A), APA enzymatic activities expressed as a percentage of maximal hydrolysis velocity obtained with 4 mM Ca^2+ for each purification vs log of Ca^2+ concentration. (B), Effect of increasing Ca^2+ concentration on APA enzymatic activities.
# wild-type mAPA [2] = target: T1, wild-type mAPA; experiment: Inhibition of GluNA hydrolysis by purified recombinant wild-type His-mAPA
# Method: (§1) Enzyme assays were carried out for wild-type and mutated His-mAPAs in 50 mM Tris-HCl buffer, pH 7.4, with or without 4 mM CaCl2, by monitoring the rate of hydrolysis of GluNA, as previously described. The sensitivity to Ca^2+ of purified wild-type and mutated His-mAPA was determinated by incubating 0.5 mM GluNA with 0 to 4 mM CaCl2 in a final volume of 100 μl of 50 mM Tris-HCl buffer, pH 7.4. All the assays were performed in black 96-well plates (solid black 96-well flat-bottomed non-treated plates with no lid; Corning Costar). All of the enzymatic studies were performed such that substrate hydrolysis rates were maintained below 10% (initial rate conditions). The kinetic curves were monitored by following the increase in fluorescence at 460 nm (lex = 330 nm), induced by the release of the β-naphthylamide fluorogenic part of the substrate by APA. Fluorescence signals were monitored by counting photons with a spectrophotometer (Fusion universal microplate analyser; Packard) equipped with a temperature control device and a plate shaker. The kinetic parameters (Km and kcat) were determined from Michaelis-Menten plots, using GraphPad Prism 4 software (GraphPad) with a final concentration of substrate (GluNA) from 0.005 to 5 mM with or without 4 mM Ca^2+. For evaluation of the substrate specificity of APA with or without 4 mM Ca^2+, the rate of hydrolysis of […] additional substrates, α-L-aspartate-β-naphthylamide (AspNA), α-L-alanine-β-naphthylamide (AlaNA) and basic α-L-lysine-β-naphthylamide (LysNA), was determined under the same experimental conditions as described for GluNA. The sensitivity of wild-type and mutated His-mAPAs to inhibition by [(3S)-3-amino-4-sulfanyl-butane-1-sulfonic acid] (EC33), glutamate-thiol (GluSH), glutamate-phosphonic-acid (GluPO3H2), methionine-thiol (MetSH) and lysine-thiol (LysSH) was determined by establishing dose-dependent inhibition curves for a final GluNA concentration of 0.5 mM in the presence or absence of 4 mM CaCl2. These compounds being linear competitive inhibitors, their Ki were calculated from the formula Ki = IC50/ (1+ [GluNA]/Km).
# R878A mutated mAPA = target: T2, R878A mutated mAPA (Mus musculus, UniProt P16406, R878A); experiment: Inhibition of GluNA hydrolysis by purified recombinant R878A His-mAPA
# T2 construct: made in house; host or cells: stably transfected CHO-K1 cells
# T2 sequence (P16406 1-945 R878A): T1 sequence (P16406 1-945) with R878A
# Method: as §1
# R878K mutated mAPA = target: T3, R878K mutated mAPA (Mus musculus, UniProt P16406, R878K); experiment: Inhibition of GluNA hydrolysis by purified recombinant R878K His-mAPA
# T3 construct: made in house; host or cells: stably transfected CHO-K1 cells
# T3 sequence (P16406 1-945 R878K): T1 sequence (P16406 1-945) with R878K
# Method: as §1
"EC50 (wild-type mAPA [1]; 0 to 4 mM CaCl2, read-out: EC50 of activation of enzymatic activity) [µM]",increase of enzymatic activity (wild-type mAPA [1]; Ca2+ concentration raised from 0 to 4 mM) [fold],Structure (SMILES),Ki (wild-type mAPA [2]) [µM],Ki (R878A mutated mAPA) [µM],"times less efficiently inhibited than wild-type (R878A mutated mAPA; R878A mAPA, presence of Ca2+) [times]",Ki (R878K mutated mAPA) [µM],"times less efficiently inhibited than wild-type (R878K mutated mAPA; R878K mAPA, presence of Ca2+) [times]"
22 ± 5,7,[Ca+2].[Cl-].[Cl-] [Ca^2+],–,–,–,–,–
–,–,"N[C@@H](CCC(=O)O)P(=O)(O)O [GluPO3H2, (4R)-4-amino-4-phosphonobutanoic acid]",0.074 ± 0.0077,6.5 ± 0.24,87,0.619 ± 0.021,8
